The results in this text go back to ChEMBL document CHEMBL2346634, “Synthesis and biological activity of 4-substituted benzoxazolone derivatives as a new class of sEH inhibitors with high anti-inflammatory activity in vivo” (Bioorg Med Chem Lett, 2013).

Structures are written as SMILES.

The term inhibition denotes the relative decrease from the control value, in per cent. The term IC50 denotes the concentration at which inhibition is half-maximal. A higher IC50 goes with lower potency.

Assay [1] deals with T1, Bifunctional epoxide hydrolase 2 (Homo sapiens) (UniProt P34913).
T1 sequence (whole entry): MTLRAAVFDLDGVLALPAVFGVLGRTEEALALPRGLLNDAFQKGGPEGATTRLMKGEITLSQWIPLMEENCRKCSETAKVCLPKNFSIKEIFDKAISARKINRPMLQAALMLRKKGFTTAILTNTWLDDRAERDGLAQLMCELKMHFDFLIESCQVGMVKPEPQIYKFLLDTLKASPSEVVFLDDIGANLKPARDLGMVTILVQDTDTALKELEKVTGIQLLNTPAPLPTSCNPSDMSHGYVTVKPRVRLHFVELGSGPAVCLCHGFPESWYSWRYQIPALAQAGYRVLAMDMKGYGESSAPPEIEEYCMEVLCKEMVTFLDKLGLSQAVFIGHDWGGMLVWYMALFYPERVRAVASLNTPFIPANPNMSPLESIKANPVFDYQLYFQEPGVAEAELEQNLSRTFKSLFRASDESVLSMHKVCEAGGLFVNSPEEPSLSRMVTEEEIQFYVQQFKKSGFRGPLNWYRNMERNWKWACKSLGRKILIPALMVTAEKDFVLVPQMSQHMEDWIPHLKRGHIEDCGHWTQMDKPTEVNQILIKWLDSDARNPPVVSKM
In words: Inhibition of recombinant human sEH expressed in Escherichia coli assessed as inhibition of substrate PHOME hydrolysis to 6-methoxy-2-naphthaldehyde at 10 ug/ml after 5 mins by fluorescence assay.

For assay [2], the target named is T2, Bifunctional epoxide hydrolase 2 (Homo sapiens, UniProt P34913).
T2 sequence (P34913 whole entry): T1 sequence (whole entry)
Description: Inhibition of recombinant human sEH expressed in Escherichia coli assessed as inhibition of substrate PHOME hydrolysis to 6-methoxy-2-naphthaldehyde after 5 mins by fluorescence assay

The next assay is filed under the species Mus musculus. In words: animal or person. As to conditions: Kunming, Ear, po, read-out: INH.

Description for Mus musculus: Antiinflammatory activity in Kunming mouse assessed as inhibition of xylene-induced ear edema at 150 mg/kg, po administered 45 mins prior to xylene challenge measured 15 mins post challenge

Regarding `O=C(Oc1cccc2oc(=O)[nH]c12)c1cccc([N+](=O)[O-])c1`, in assay [1], the inhibition worked out at 92.9%. Further, the IC50 in assay [2] was found to be 3 µM. In the case of `Cc1ccc(S(=O)(=O)Oc2cccc3oc(=O)[nH]c23)cc1`, the inhibition in assay [1] came out at 39.9%. With `CSCCC(NC(=O)OC(C)(C)C)C(=O)Oc1cccc2oc(=O)[nH]c12` (stereo not drawn), in assay [1], the inhibition was 99.6%. In addition, half-maximal inhibition in assay [2] (IC50) was put at 3.02 µM. Moreover, the inhibition in vivo at 150 mg/kg in the assay filed under Mus musculus came to 24.8%. For `O=c1[nH]c2c(OS(=O)(=O)c3cccc(Cl)c3)cccc2o1`, the inhibition in assay [1] is 24.5%. As for `O=c1[nH]c2c(OS(=O)(=O)c3ccc(Cl)cc3)cccc2o1`, in assay [1], the inhibition is 13.6%. On to `O=c1[nH]c2c(OS(=O)(=O)c3ccccc3Cl)cccc2o1`, for which the inhibition in assay [1] came to 15.2%. In the case of `CC(C)(C)OC(=O)NCC(=O)Oc1cccc2oc(=O)[nH]c12`, the inhibition in assay [1] is 95.5%. This molecule also had an IC50 in assay [2] of 17.2 µM. Moreover, in the assay listed under Mus musculus, the inhibition in vivo at 150 mg/kg was found to be 54.5%. Regarding `Cc1ccc(C(=O)Oc2cccc3oc(=O)[nH]c23)cc1`, in assay [1], the inhibition is 98.3%. The midpoint of inhibition in assay [2], the IC50, lay at 1.07 µM. Consider `O=c1[nH]c2c(OS(=O)(=O)c3ccccc3[N+](=O)[O-])cccc2o1`, for which the inhibition in assay [1] was 36.1%. As to `O=C(Oc1cccc2oc(=O)[nH]c12)c1ccc([N+](=O)[O-])cc1`, the inhibition in assay [1] was determined as 28.1%. For `CC(C)(C)OC(=O)N1CCCC1C(=O)Oc1cccc2oc(=O)[nH]c12` (stereo not drawn), the inhibition in assay [1] was 101%. In addition, the IC50 in assay [2] is 1.72 µM. Besides, the inhibition in vivo at 150 mg/kg in the assay filed under Mus musculus stood at 51.5%. Consider `CC(C)(C)OC(=O)NC(Cc1c[nH]c2ccccc12)C(=O)Oc1cccc2oc(=O)[nH]c12` (stereo not drawn), for which the inhibition in assay [1] was 79.6%. Moreover, the inhibition in vivo at 150 mg/kg in the assay listed under Mus musculus was 61%.

Consider `Cc1cccc(S(=O)(=O)Oc2cccc3oc(=O)[nH]c23)c1`, for which, in assay [1], the inhibition came to 30.9%. Turning to `CC(C)(C)OC(=O)NC(Cc1ccccc1)C(=O)Oc1cccc2oc(=O)[nH]c12` (stereo not drawn), the inhibition in assay [1] stood at 90.8%. The molecule further had an IC50 in assay [2] of 2.67 µM. The inhibition in vivo at 150 mg/kg in the assay filed under Mus musculus amounted to 64%.

In the case of `O=C(Oc1cccc2oc(=O)[nH]c12)c1ccc(Cl)cc1`, in assay [1], the inhibition was 27.8%. Regarding `O=C(Oc1cccc2oc(=O)[nH]c12)c1cccc(Cl)c1`, in assay [1], the inhibition was 25.3%. For the molecule `O=C(Oc1cccc2oc(=O)[nH]c12)c1ccccc1Cl`, the inhibition in assay [1] was 30.8%. As for `CC(NC(=O)OC(C)(C)C)C(=O)Oc1cccc2oc(=O)[nH]c12` (stereo not drawn), in assay [1], the inhibition was 95.7%. Besides, the IC50 in assay [2] is 16.4 µM. The inhibition in vivo at 150 mg/kg in the assay filed under Mus musculus worked out at 40.7%. For the molecule `O=c1[nH]c2c(OS(=O)(=O)c3cccc([N+](=O)[O-])c3)cccc2o1`, the inhibition in assay [1] came to 31.6%. In the case of `O=c1[nH]c2c(O[C@@H]3O[C@H](CO)[C@@H](O)[C@H](O)[C@H]3O)cccc2o1`, the inhibition in assay [1] is 45.5%. Same read-out and setting: with `O=C(Oc1cccc2oc(=O)[nH]c12)c1ccccc1` the figure was 28%; with `O=c1[nH]c2c(O[C@@H]3O[C@H](CO)[C@H](O)[C@H](O)[C@H]3O)cccc2o1`, 61%.

For the molecule `Cc1ccccc1C(=O)Oc1cccc2oc(=O)[nH]c12`, the inhibition in assay [1] amounted to 26.2%. On to `O=c1[nH]c2c(OS(=O)(=O)c3ccccc3)cccc2o1`, for which the inhibition in assay [1] amounted to 36%. Consider `O=C(Oc1cccc2oc(=O)[nH]c12)c1ccccc1[N+](=O)[O-]`, for which, in assay [1], the inhibition was 29.2%. Still for that read-out and setting: with `Cc1ccccc1S(=O)(=O)Oc1cccc2oc(=O)[nH]c12` the figure was 28%. In the case of `CC(C)C(NC(=O)OC(C)(C)C)C(=O)Oc1cccc2oc(=O)[nH]c12` (stereo not drawn), the inhibition in assay [1] came to 48%. Further, in the assay listed under Mus musculus, the inhibition in vivo at 150 mg/kg was determined as 46.5%.

For `O=c1[nH]c2c(OS(=O)(=O)c3ccc([N+](=O)[O-])cc3)cccc2o1`, the inhibition in assay [1] came to 28.8%.

With `Cc1cccc(C(=O)Oc2cccc3oc(=O)[nH]c23)c1`, the inhibition in assay [1] amounted to 24.4%.
